Results reported in patent US10532053B2, “Histone deacetylase inhibitor, and preparation method and use thereof” (GUANGDONG ZHONGSHENG PHARMACEUTICAL CO., LTD, priority 2015, dated 2020).
Like-named read-outs stand apart in the source and are kept apart here.

Columns and labels:
[1] = target: T1, HDAC6 (Homo sapiens, UniProt Q9UBN7); test: HDAC inhibitory activity, fluorescence-coupled acetylated peptide substrate assay; assay type: biochemical; settings: for Selection Ratio HDAC1/6: ratio of IC50 HDAC1 to HDAC6; for Selection Ratio HDAC8/6: ratio of IC50 HDAC8 to HDAC6
T1 sequence (Q9UBN7 1-1215): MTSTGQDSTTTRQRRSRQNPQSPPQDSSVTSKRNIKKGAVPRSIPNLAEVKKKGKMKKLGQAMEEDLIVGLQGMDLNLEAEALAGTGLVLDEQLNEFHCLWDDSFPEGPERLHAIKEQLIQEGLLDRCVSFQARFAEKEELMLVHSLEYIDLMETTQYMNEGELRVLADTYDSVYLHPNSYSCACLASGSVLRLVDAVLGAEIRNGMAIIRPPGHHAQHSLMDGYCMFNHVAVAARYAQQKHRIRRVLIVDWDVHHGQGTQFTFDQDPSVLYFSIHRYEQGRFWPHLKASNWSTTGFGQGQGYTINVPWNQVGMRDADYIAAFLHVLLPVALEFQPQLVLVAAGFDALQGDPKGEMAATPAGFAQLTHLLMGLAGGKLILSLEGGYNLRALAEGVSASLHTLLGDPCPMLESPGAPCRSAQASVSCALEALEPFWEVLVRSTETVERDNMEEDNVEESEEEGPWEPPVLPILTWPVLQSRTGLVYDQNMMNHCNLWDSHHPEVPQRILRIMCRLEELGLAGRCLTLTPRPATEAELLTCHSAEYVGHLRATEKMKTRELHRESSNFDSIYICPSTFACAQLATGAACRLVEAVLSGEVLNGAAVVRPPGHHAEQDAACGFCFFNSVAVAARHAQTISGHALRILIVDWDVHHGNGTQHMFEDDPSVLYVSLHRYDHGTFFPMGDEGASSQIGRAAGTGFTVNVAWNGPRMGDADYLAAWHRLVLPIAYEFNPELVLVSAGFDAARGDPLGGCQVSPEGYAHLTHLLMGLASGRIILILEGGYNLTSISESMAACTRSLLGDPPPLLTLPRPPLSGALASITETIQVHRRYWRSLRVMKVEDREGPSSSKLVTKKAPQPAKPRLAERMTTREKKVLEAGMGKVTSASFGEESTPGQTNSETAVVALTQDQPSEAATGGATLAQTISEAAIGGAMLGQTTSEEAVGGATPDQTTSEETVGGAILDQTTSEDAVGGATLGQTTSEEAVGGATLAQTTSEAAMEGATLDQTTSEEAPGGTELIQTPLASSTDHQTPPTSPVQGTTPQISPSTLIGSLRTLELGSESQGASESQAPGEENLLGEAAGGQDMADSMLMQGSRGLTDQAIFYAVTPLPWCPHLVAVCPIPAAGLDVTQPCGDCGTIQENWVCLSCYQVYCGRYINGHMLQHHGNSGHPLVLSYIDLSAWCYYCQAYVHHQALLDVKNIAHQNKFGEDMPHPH
Experimental: (§2) The HDAC inhibitory activity was determined by fluorescence-coupled acetylated peptide substrate assay (Lys-Ac-AMC). HDAC1 protein was purchased from BPS Bioscience, and the reaction buffer system was a modified tris(hydroxymethyl)aminomethane buffer (pH 7.0). The small molecule compounds of the present invention were prepared by being dissolved in 100% DMSO. HDAC was prepared in a buffer at a certain concentration as an enzyme solution; trypsin and fluorescent group 4-amino-7-coumarin coupled-acetylated peptide (Ac-peptide) substrate were prepared in a buffer at a certain concentration as a substrate solution. The compounds were added into the reaction wells in a 384-well plate at a designed concentration of 10 μM, 1 μM, 0.5 μM, 0.1 μM, 0.05 μM, 0.01 μM, 0.005 μM, 0.001 μM, and 0.00005 μM, respectively, and then 15 μl of the HDAC solution was added into the reaction wells (15 μl of blank buffer to the control well). […] The results were analyzed by GraphPad Prism software and IC50 values were calculated according to the formula: Y=Background Data+(Top Data−Background Data)/(1+10^((Log IC50−X) a curve slope)), where Y: the inhibition rate (%) and X: the concentration of the compound.

[2] = target: T2, HDAC8 (Homo sapiens, UniProt Q9BY41); test: as above
T2 sequence (Q9BY41 1-377): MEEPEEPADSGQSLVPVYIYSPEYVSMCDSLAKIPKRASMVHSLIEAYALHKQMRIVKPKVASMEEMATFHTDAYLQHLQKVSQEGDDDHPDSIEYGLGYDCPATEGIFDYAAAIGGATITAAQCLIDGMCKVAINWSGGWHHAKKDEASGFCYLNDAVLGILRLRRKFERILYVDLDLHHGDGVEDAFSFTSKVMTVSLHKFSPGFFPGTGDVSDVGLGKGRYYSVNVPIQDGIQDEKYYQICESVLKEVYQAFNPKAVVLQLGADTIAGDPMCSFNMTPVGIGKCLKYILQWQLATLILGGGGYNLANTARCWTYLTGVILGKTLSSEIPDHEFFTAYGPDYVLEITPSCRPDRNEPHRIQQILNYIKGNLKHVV
Experimental: as §2

[3] = system: Human ovarian cancer cell SKOV-3; test: Cell proliferative activity (MTT / cck-8); assay type: cell-based; settings: SK-OV-3, incubated for 96 hours, read-out: Half-Inhibitory Concentration IC50 Human ovarian cancer cell SKOV-3
Experimental: (§1) Tumor cell line A375: human melanoma cell; H460: lung adenocarcinoma cell; Hela: human cervical cancer cell; HepG2: human liver cancer cell; and SKOV-3: human ovarian cancer cell, were all purchased from ATCC and cultured to logarithmic phase according to the cultivation protocol recommended by ATCC. The cells in the logarithmic phase were plated onto a 96-well plate at 2000-3000 cells/well; in the case of adherent cells, the cells should be adherent to the wall. […] After that, the cell proliferative activity was determined by MTT assay for the tumor cells representing the solid tumor model and by cck-8 assay for the tumor cells representing the hematologic tumor model.

[4] = system: Human melanoma A375; test: Cell proliferative activity (MTT / cck-8); assay type: cell-based; settings: A-375, incubated for 96 hours, read-out: Half-Inhibitory Concentration IC50 Human melanoma A375
Experimental: as §1

[5] = system: Human liver cancer cell HepG2; test: Cell proliferative activity (MTT / cck-8); assay type: cell-based; settings: incubated for 96 hours, read-out: Half-Inhibitory Concentration IC50 Human liver cancer cell HepG2
Experimental: as §1

[6] = system: Human cervical cancer cell Hela; test: Cell proliferative activity (MTT / cck-8); assay type: cell-based; settings: incubated for 96 hours, read-out: Half-Inhibitory Concentration IC50 Human cervical cancer cell Hela
Experimental: as §1

[7] = system: Human lung cancer cell H460; test: Cell proliferative activity (MTT / cck-8); assay type: cell-based; settings: NCI-H460, incubated for 96 hours, read-out: Half-Inhibitory Concentration IC50 Human lung cancer cell H460
Experimental: as §1

[8] = target: T3, HDAC1 (Homo sapiens, UniProt Q13547); test: HDAC inhibitory activity, fluorescence-coupled acetylated peptide substrate assay (Lys-Ac-AMC); assay type: biochemical
T3 construct: purchased BPS Bioscience
T3 sequence (Q13547 whole entry): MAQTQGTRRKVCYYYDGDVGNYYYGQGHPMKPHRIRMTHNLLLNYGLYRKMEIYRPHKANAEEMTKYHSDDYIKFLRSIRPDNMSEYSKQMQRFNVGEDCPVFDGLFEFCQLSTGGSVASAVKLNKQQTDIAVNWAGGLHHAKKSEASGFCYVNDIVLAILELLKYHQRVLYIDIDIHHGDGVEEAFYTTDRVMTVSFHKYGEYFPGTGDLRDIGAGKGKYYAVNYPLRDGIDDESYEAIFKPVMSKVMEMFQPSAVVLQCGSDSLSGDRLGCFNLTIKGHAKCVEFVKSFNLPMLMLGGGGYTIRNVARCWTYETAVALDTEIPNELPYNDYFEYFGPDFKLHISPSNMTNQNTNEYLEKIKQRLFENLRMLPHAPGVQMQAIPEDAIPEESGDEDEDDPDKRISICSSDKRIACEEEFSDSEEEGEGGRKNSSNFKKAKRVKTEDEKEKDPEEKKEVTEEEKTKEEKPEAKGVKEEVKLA
Experimental: as §2

| SMILES | IC50 ([1]; Table 2) [µM] | IC50 ([1]; Table 3) [µM] | Selection Ratio HDAC1/6 [1] | Selection Ratio HDAC8/6 [1] | IC50 ([2]; IC50 HDAC8, Table 2) [µM] | IC50 ([2]; read-out: IC50 HDAC8, Table 3) [µM] | IC50 [3] [µM] | IC50 [4] [µM] | IC50 [5] [µM] | IC50 [6] [µM] | IC50 [7] [µM] | IC50 ([8]; Table 2) [µM] | IC50 ([8]; Table 3) [µM] | IC50 ([2]; IC50 HDAC8, Table 3) [µM] |
| --- | --- | --- | --- | --- | --- | --- | --- | --- | --- | --- | --- | --- | --- | --- |
| Cc1nc(N(C)c2ccc(OCC(=O)NO)cc2)c2ccccc2n1 [II-1, N-hydroxy-2-(4-(methyl(2-methyl-4-quinazolinyl)amino)phenoxy)acetamide] | < 0.01 | 0.0086 | 20.0 | 137.3 | > 1 | 1.18 | 0.1 to 1 | > 1 | 0.1 to 1 | 0.1 to 1 | 0.1 to 1 | 0.1 to 1 | 0.172 | – |
| Cc1nc(N(C)c2ccc(OCCCCC(=O)NO)cc2)c2ccccc2n1 [II-3, N-hydroxy-5-(4-(methyl(2-methyl-4-quinazolinyl)amino)phenoxy)pentanamide] | 0.01 to 0.1 | 0.057 | 7.9 | 29.8 | > 1 | 1.7 | 0.1 to 1 | > 1 | > 1 | > 1 | 0.1 to 1 | 0.1 to 1 | 0.451 | – |
| Cc1nc(N(C)c2ccc(OCCCCCC(=O)NO)cc2)c2ccccc2n1 [II-4, N-hydroxy-6-(4-(methyl(2-methyl-4-quinazolinyl)amino)phenoxy)hexanamide] | 0.01 to 0.1 | 0.034 | 8.0 | 44.4 | > 1 | 1.51 | 0.1 to 1 | > 1 | > 1 | > 1 | > 1 | 0.1 to 1 | 0.272 | – |
| Cc1nc(N(C)c2ccc(OCc3ccc(C(=O)NO)cc3)cc2)c2ccccc2n1 [II-5, N-hydroxy-4-((4-(methyl(2-methyl-4-quinazolinyl)amino)phenoxy)methyl)benzamide] | < 0.01 | 0.0064 | 6.9 | 371.3 | > 1 | – | > 1 | > 1 | > 1 | > 1 | > 1 | – | – | 2.38 |
| Cc1nc(N(C)c2ccc(Oc3ccc(C(=O)NO)cc3)cc2)c2ccccc2n1 [II-6, N-hydroxy-4-(4-(methyl(2-methyl-4-quinazolinyl)amino)phenoxy)benzamide] | 0.01 to 0.1 | 0.072 | 7.7 | 68.5 | > 1 | – | 0.1 to 1 | 0.1 to 1 | 0.1 to 1 | 0.1 to 1 | 0.1 to 1 | 0.1 to 1 | 0.552 | 4.93 |
| Cc1nc(N(C)c2ccc(Oc3ccc(C(=O)NO)cn3)cc2)c2ccccc2n1 [II-7, N-hydroxy-6-(4-(methyl(2-methyl-4-quinazolinyl)amino)phenoxy)nicotinamide] | < 0.01 | 0.0058 | 110.0 | 218.1 | > 1 | – | 0.1 to 1 | 0.1 to 1 | 0.1 to 1 | 0.1 to 1 | 0.1 to 1 | 0.1 to 1 | 0.638 | 1.27 |
